“Also recorded” adds a separate entry of the source.
How the values were obtained:
RyR1 = biological target: T1, RyR1 (Mus musculus, UniProt E9PZQ0); assay: Ca2+ sparks frequency in saponin skinned EDL muscle fibres of post myocardial infarction (PMI) mice; format: cell-based; settings: 1 μM 4F4t-NeuroP, acute incubation; EDL fibres from PMI mice
T1 construct: Fluo-4 Ca2+ sparks

[1] = system: mouse diaphragm muscle fibers; assay: Diaphragm muscle fibre atrophy (cross section area, fibre type) after 12 hours of mechanical ventilation in mice; format: in vivo; settings: 10 μM, 12 h MV
Experimental: FIG. 3: A. Force frequency relationship of mice diaphragm muscle, after 12 hours of mechanical ventilation, treated or not with 10 μM 4F4t-NeuroP. […] Representative immunostaining of fast and slow diaphragm muscle fibers in mouse. Antibodies against fast- and slow-type myosin ATPase were used to perform immunostaining on cryosections of mouse diaphragm. Muscle membrane was counterstained with dystrophin antibodies. The staining was performed in diaphragm muscle 12 h after MV with or without 4F4t-NeuroP. Average cross-section area was quantified in each condition including all fibre type (B.) or by discriminating slow versus fast fibres (C.). D. Average distribution of Fast versus Slow twitch fibres in each condition. (*p<0.05 vs control)
6 hours of MV remains a rather short time of ventilation which represents a particular interest to explore proximal pathophysiological mechanisms of VIDD. As previously reported, 6 hours of mechanical ventilation is able to induce force deficit without histological alterations. However, 12 hours of mechanical ventilation can induce muscle atrophy by a mechanism mediated by RyR1 dependent SR Ca^2+-leak. The inventors therefore tested here the beneficial effect of 4F4t-NeuroP after 12 hours of mechanical ventilation.

piglet diaphragm (VIDD) = assay: Trans-diaphragmatic pressure (Pdi)-frequency relationship after 72 hours of mechanical ventilation in piglets; format: in vivo; settings: for prevention of VIDD in porcine model: general statement, piglets
Experimental: As previously described^18,25, twelve piglets (15-20 kg) were separated in two groups of six animals/each. In both groups, oxygenation was maintained with a fraction of inspired oxygen (FIO2) ranging from 25 to 35%, tidal volume between 10 and 12 ml·kg^−1 body weight and breathing frequency from 15 to 30 cycles/min to maintain normocapnia. In the first group (MV group), piglets were mechanically ventilated using CMV, with a positive end-expiratory pressure level at 5 cm H2O. The absence of spontaneous breathing was verified on the ventilator trend graphs, and the diaphragm electromyographic activity was measured to ensure the absence of diaphragm electrical activity. In the second group (control group), piglets were ventilated using ASV, with settings in phase with the piglet body weight (inspiratory flow trigger at 0.3 L·min^−1, percentage of mechanical ventilation between 100 and 150%, positive end-expiratory pressure level at 5 cm H2O, and expiratory trigger at 25% of the peak inspiratory flow). The diaphragm electromyographic activity was assessed to verify that piglets could breathe spontaneously. Both groups received the same care, except for the MV mode.
Briefly, piglets were anesthetized by intravenous injection of 5-6 mg kg^−1 pentobarbital sodium, intubated with a cuffed endotracheal tube and mechanically ventilated (Galileo®; Hamilton Medical AG, Rhazuns, Switzerland). Anesthesia was maintained with continuous intravenous infusion of 15-20 mg·kg^−1 propofol, 0.1-0.3 mg·kg^−1 midazolam and 3-4 mg·kg^−1·h^−1 ketamine. The level of sedation was monitored by using a bispectral index system (BIS®; Aspect, Norwood, MA). Heating pads were employed, as needed, to maintain the normal body temperature of 38.5-39.5 °C. […]
Arterial carbon dioxide pressure was monitored using a capnograph (Deltatrac®; Datex-Ohmeda, Helsinki, Fin-land) and verified by arterial blood gas analysis (iSTAT®; Abbott, Abbott Park, IL). […]
The diaphragm contractile function was assessed in vivo by measuring the transdiaphragmatic pressure (Pdi)^18. […]

prostanoid receptors = assay: In vitro binding assay on prostanoid receptors (agonist or antagonist effect); settings: effects higher than 50% considered significant
Text: Prostaglandin (or prostanoid) receptors represent a family of cell surface membrane receptors known to bind and respond principally to metabolites of the polyunsaturated fatty acid (PUFA), arachidonic acid. As some of them are known to modulate cAMP production or intracellular calcium concentration, and based on the chemical structure of neuroprostanes (i.e DHA derivatives), the inventors performed an in vitro binding assay to specifically evaluate the potential agonist or antagonist effect of VB558 on established prostanoid receptors. Results showing an inhibition (or stimulation for assays run in basal conditions) higher than 50% are considered to represent significant effects of the test compounds.

[2] = system: ventricular cardiomyocytes derived from DMD hIPSc (RyR2); assay: Diastolic level of calcium in ventricular cardiomyocytes derived from DMD hIPSc (indo-1); format: cell-based, human
Experimental: FIG. 6: Effect of Hexanor on the diastolic level of Calcium in ventricular cardiomyocytes derived from DMD and control hIPSc. The cardiomyocytes were loaded with indo-1 to assess in a ratiometric manner the intracellular level of calcium. […] A. The level of calcium is higher in DMD compared to control cells. This is prevented by hexanor (1 μM).
The inventors then tested the impact of VB558 on the diastolic level of Calcium in ventricular cardiomyocytes derived from Duchenne muscular dystrophy (DMD).

T1 sequence (E9PZQ0 whole entry): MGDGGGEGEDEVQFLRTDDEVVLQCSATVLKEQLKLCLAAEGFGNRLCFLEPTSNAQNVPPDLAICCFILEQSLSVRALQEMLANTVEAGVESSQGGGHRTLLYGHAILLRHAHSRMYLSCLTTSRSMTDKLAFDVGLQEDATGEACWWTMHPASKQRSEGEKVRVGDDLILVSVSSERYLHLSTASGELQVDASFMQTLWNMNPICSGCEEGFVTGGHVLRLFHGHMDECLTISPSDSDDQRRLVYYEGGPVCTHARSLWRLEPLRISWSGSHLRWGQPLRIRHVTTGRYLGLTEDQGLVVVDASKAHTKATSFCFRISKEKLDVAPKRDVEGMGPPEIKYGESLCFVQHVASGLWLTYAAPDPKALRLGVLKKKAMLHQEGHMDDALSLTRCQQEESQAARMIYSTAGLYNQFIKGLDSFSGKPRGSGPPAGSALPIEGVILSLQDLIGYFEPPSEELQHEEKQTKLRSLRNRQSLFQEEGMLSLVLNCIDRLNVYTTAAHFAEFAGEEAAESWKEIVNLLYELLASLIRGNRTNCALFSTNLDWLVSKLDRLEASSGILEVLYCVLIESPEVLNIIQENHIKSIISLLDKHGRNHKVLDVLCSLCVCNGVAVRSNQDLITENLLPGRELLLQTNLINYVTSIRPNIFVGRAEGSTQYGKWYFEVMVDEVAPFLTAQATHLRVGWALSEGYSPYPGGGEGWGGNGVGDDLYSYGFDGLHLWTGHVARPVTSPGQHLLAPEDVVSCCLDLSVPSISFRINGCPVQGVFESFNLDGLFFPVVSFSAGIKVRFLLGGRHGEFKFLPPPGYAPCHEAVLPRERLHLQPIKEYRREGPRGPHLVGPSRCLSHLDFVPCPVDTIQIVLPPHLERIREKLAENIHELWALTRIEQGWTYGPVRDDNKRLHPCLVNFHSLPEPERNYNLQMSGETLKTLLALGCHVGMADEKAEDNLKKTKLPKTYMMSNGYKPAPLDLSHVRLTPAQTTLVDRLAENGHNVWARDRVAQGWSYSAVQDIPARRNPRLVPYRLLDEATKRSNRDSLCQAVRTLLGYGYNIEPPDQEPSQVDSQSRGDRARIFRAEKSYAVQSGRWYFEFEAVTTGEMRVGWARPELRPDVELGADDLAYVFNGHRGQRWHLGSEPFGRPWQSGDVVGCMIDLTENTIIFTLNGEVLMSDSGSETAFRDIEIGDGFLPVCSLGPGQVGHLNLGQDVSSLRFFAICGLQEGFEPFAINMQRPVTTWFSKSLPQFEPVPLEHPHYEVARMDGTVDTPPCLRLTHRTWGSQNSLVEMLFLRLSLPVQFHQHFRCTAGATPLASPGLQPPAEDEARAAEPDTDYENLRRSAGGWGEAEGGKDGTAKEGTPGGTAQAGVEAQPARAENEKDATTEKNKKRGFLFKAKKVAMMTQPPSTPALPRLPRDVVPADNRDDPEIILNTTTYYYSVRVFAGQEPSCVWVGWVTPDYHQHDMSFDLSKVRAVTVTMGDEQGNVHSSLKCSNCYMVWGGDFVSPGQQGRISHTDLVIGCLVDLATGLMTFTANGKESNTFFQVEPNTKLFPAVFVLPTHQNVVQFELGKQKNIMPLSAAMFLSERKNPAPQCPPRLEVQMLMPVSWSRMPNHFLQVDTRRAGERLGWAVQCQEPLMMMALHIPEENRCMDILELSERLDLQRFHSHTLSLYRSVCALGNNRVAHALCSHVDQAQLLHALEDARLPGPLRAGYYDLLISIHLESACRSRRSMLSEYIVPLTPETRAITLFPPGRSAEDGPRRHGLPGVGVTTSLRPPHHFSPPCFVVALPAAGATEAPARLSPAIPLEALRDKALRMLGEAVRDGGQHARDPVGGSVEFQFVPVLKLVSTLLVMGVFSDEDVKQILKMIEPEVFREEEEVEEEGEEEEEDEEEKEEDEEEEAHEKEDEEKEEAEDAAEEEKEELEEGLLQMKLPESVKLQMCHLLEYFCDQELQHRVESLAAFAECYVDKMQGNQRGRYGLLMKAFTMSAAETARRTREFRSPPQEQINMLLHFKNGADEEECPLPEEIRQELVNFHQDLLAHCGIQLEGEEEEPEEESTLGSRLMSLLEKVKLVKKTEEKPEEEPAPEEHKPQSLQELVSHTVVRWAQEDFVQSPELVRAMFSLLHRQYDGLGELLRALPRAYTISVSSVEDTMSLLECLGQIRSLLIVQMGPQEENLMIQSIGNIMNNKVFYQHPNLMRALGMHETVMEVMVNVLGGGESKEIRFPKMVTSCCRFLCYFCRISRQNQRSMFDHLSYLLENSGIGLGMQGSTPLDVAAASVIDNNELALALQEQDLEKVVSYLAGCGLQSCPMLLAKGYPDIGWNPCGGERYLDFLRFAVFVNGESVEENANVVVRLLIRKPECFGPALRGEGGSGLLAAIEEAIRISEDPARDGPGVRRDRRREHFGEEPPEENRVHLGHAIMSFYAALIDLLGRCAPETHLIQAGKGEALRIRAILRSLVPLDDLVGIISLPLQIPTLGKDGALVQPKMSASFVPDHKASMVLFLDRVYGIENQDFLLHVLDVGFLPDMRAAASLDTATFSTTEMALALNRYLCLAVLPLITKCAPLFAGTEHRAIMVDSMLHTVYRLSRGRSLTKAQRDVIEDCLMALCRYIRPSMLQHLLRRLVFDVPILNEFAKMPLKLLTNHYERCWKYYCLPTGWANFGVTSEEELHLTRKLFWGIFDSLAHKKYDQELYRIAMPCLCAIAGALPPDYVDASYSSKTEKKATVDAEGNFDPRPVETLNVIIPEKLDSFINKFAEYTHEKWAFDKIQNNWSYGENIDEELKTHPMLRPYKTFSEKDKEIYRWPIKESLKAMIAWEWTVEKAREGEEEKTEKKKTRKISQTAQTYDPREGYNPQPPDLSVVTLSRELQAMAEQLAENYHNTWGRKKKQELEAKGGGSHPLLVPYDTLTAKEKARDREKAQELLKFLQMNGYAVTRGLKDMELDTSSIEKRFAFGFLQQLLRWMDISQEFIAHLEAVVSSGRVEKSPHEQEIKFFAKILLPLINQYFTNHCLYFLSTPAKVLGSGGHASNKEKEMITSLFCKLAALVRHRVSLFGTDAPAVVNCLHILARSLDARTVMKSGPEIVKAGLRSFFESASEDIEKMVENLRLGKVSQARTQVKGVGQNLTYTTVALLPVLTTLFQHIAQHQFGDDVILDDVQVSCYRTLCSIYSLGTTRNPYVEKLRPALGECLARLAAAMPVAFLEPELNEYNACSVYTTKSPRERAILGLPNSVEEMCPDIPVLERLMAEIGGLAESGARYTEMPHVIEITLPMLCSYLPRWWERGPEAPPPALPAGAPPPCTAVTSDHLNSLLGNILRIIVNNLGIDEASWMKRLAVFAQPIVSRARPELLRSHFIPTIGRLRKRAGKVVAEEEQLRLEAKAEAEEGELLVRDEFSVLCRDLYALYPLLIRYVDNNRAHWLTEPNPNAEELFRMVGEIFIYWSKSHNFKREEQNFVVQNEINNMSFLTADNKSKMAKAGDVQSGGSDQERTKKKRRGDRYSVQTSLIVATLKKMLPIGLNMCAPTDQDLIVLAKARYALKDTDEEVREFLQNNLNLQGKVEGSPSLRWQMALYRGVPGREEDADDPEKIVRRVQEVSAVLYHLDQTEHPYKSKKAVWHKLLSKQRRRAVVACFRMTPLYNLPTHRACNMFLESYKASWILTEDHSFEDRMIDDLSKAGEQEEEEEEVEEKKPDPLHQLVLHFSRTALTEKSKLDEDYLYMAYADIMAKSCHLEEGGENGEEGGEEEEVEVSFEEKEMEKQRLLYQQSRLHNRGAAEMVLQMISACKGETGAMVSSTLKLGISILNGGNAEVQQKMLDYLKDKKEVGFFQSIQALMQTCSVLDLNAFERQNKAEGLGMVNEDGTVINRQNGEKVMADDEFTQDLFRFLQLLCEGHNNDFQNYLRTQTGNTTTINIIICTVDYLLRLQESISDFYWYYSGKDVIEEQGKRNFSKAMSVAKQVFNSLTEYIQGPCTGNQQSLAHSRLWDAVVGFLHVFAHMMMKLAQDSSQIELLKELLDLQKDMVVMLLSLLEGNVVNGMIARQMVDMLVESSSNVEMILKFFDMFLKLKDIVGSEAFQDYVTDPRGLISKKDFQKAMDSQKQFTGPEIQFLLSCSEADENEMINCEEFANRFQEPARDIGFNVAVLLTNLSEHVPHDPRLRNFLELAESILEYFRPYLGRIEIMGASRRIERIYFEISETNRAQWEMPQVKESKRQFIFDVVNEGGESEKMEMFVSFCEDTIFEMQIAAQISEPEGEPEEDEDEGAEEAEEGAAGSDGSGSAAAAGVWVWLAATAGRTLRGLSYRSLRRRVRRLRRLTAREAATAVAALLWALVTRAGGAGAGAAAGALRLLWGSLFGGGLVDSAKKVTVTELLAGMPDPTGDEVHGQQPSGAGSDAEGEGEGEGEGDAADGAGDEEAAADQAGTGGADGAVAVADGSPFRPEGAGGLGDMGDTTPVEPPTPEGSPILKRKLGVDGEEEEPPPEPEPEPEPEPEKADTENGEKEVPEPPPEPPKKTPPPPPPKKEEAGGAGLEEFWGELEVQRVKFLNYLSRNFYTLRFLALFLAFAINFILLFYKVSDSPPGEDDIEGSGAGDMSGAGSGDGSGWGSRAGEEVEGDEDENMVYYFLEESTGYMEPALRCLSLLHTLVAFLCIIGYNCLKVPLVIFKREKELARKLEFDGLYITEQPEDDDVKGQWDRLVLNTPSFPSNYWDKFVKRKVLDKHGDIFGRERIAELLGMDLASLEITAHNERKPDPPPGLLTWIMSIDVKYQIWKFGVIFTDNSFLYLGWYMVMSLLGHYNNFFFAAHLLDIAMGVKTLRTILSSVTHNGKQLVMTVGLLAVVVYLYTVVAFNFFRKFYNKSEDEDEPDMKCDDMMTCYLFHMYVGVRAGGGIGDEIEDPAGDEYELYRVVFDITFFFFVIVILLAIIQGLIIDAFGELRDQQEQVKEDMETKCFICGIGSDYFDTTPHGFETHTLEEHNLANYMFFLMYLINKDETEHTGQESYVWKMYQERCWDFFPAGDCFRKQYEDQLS

Structure (SMILES)	Ca2+-sparks frequency / RyR1-dependent leaky behavior (RyR1)	distribution of fiber type (slow vs fast) [1]	muscle fibre atrophy / cross section area (CSA) [1]	prevention of VIDD in porcine model (piglet diaphragm (VIDD))	reduction of trans-diaphragmatic pressure (Pdi) / VIDD in piglets (piglet diaphragm (VIDD); IV bolus 0.250 mg·kg^−1 then 0.025 mg·kg^−1 every 12 hours, 72 h MV)	significant effect (inhibition or stimulation higher than 50%) at prostanoid receptors (prostanoid receptors)	diastolic level of calcium ([2]; 1 μM, without isoproterenol, DMD hIPSc cardiomyocytes)	RyR2 dysfunction in DMD ([2]; DMD-derived ventricular cardiomyocytes)	resting calcium under isoproterenol stimulation ([2]; hexanor, Iso 1 μM, DMD hIPSc cardiomyocytes)
CC/C=C\C/C=C\C/C=C\C[C@@H]1[C@H](/C=C/C(O)CCC(=O)O)[C@@H](O)C[C@H]1O (mixture of isomers) [Compound 4F4t-NeuroP, 4(RS)-4-F4t-Neuroprostane]	full prevention of this RyR1-dependent leaky behavior	without changing the distribution of fiber type	prevents diaphragm muscle fibres atrophy after 12 hours of mechanical ventilation independently of the fibre phenotype; also recorded: prevents the reduction of cross section area (CSA), independently of the muscle fiber phenotype	prevent with a high efficiency VIDD	–	–	–	–	–
CC/C=C\C[C@@H]1[C@H](/C=C/C(O)CCC(=O)O)[C@@H](O)C[C@H]1O (mixture of isomers) [VB558, (E)-6-((1S,2R,3R,5S)-3,5-dihydroxy-2-((Z)-pent-2-en-1-yl)cyclopentyl)-4-hydroxyhex-5-enoic Acid]	–	–	–	prevent with a high efficiency VIDD	prevents VIDD in piglets after 72 hours of ventilation; also recorded: fully prevented	not observed at any of the receptors studied	prevented	may be prevented	full normalization of the resting calcium
